# In patent US7838674B2, “Tetracyclic lactame derivatives” (Novartis AG, priority 2007, dated 2010):
# Where a name gives a salt, the structure may show the parent alone.
# Biological target: T1, MAPKAPK2 enzyme (HIS-MK2, Invitrogen PV4019) (Homo sapiens, UniProt P49137)
# T1 construct: His; purchased Invitrogen PV4019
# Experiment: Alternative MAPKAPK2 assay (Caliper microfluidic mobility shift, HSP27-peptide)
# Assay type: biochemical
# Conditions: HIS-MK2 0.013 nM, ATP 10 μM, 60 min at 30° C.
# T1 sequence (P49137 whole entry): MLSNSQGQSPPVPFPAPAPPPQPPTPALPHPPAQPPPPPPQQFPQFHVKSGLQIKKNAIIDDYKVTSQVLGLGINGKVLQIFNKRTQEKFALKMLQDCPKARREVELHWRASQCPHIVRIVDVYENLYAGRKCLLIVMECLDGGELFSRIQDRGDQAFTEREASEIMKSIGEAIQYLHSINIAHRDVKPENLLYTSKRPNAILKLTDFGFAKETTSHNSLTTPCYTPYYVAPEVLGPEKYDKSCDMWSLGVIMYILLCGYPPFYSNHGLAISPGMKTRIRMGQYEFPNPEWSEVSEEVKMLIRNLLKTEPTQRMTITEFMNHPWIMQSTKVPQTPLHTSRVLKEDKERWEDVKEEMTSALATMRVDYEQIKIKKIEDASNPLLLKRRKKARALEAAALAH
row,SMILES,IC50 [nM]
1,"Cn1c2c(c3c1-c1cc(-c4cccnc4)ncc1CC3)C(=O)NC1(CNC1)C2 [Example 153, 2-(3-Amino-azetidin-3-ylmethyl)-8-(pyridin-3-yl)-1-methyl-4,5-dihydro-1H-pyrrolo[2,3-f]isoquinoline-3-carboxylic acid lactam hydrochloride]",17
2,"O=C1NCC2(CC2)c2[nH]c3c(c21)CCc1cnc(-c2cncnc2)cc1-3 [Example 123, 2-(1-Aminomethyl-cyclopropyl)-8-pyrimidin-5-yl-4,5-dihydro-1H-pyrrolo[2,3f]isoquinoline-3-carboxylic acid lactam]",30
3,"Cn1c2c(c3c1-c1cc(-c4cccc(C#N)c4)ncc1CC3)C(=O)NC1(CNC1)C2 [Example 132, 2-(3-Amino-azetidin-3-ylmethyl)-8-(3-cyano-phenyl)-1-methyl-4,5-dihydro-1H-pyrrolo[2,3-f]isoquinoline-3-carboxylic acid lactam hydrochloride]",14
4,"Cn1c2c(c3c1C1(CNC1)CNC3=O)CCc1cnc(-c3ccc(F)nc3)cc1-2 [Example 162, 2-(3-Aminomethyl-azetidin-3-yl)-8-(6-fluoro-pyridin-3-yl)-1-methyl-4,5-dihydro-1H-pyrrolo[2,3-f]isoquinoline-3-carboxylic acid lactam hydrochloride]",20
5,"Cn1c2c(c3c1-c1nc(-c4cncc(C(=O)NCc5ccccc5)c4)ncc1CC3)C(=O)NC1(CNC1)C2 [Example 296, 2-(3-Amino-azetidin-3-ylmethyl)-8-(3-benzylcarbamoyl-3-pyridyl)-1-methyl-4,5-dihydro-1H-1,7,9-triaza-cyclopenta[a]naphthalene-3-carboxylic acid lactam hydrochloride]",17
6,"COc1ccc(-c2cc3c(cn2)CCc2c-3[nH]c3c2C(=O)NC2(CC2)C32CN(C)C2)cc1 [Example 225, 2-[3-(1-Amino-cyclopropyl)-1-methyl-azetidin-3-yl]-8-(4-methoxyphenyl)-4,5-dihydro-1H-pyrrolo[2,3-f]isoquinoline-3-carboxylic acid lactam]",< 3
7,"Cc1ccc(-c2cc3c(cn2)CCc2c-3[nH]c3c2C(=O)NC2(CC2)C3)c(F)n1 [Example 158, 2-(1-Amino-cyclopropylmethyl)-8-(2-fluoro-6-methyl-pyridin-3-yl)-4,5-dihydro-1H-pyrrolo[2,3-f]isoquinoline-3-carboxylic acid lactam]",51
8,"Cn1c2c(c3c1C1(CNC1)C1(CC1)NC3=O)CCc1cnc(-c3cccc(F)c3)cc1-2 [Example 209, 2-[3-(1-Amino-cyclopropyl)-azetidin-3-yl]-8-(3-fluoro-phenyl)-1-methyl-4,5-dihydro-1H-pyrrolo[2,3-f]isoquinoline-3-carboxylic acid lactam hydrochloride]",3
9,"CC(C)Oc1ccc(-c2cc3c(cn2)CCc2c-3[nH]c3c2C(=O)NC2(CC2)C32CN(C)C2)cn1 [Example 254, 2-[3-(1-Amino-cyclopropyl)-1-methyl-azetidin-3-yl]-8-(6-isopropoxy-pyridin-3-yl)-4,5-dihydro-1H-pyrrolo[2,3-f]isoquinoline-3-carboxylic acid lactam]",< 3
10,"COc1ccc(-c2cc3c(cn2)CCc2c-3[nH]c3c2C(=O)NCC32CCC2)cc1F [Example 299, 2-(3-Fluoro-4-methoxy-phenyl)-10-spirocyclobutyl-5,6,8,9,10,11-hexahydro-3,8,11-triaza-benzo[a]fluoren-7-one]",39

# The next lines start with the values.
row,IC50 [nM],SMILES
1,16,"CC(C)(N)CCc1ccc(-c2cc3c(cn2)CCc2c-3[nH]c3c2C(=O)NCC32CC2)cc1 [Example 118, 8-[4-(3-Amino-3-methyl-butyl)-phenyl]-2-(1-aminomethyl-cyclopropyl)-4,5-dihydro-1H-pyrrolo[2,3-f]isoquinoline-3-carboxylic acid lactam]"
2,19,CN(C)c1ccc(-c2cc3c(cn2)CCc2c-3[nH]c3c2C(=O)NCC32CC2)cn1 [Example 117]
3,40,"C#Cc1cc(-c2cc3c(cn2)CCc2c-3[nH]c3c2C(=O)NCC32CC2)ccc1OC [Example 120, 2-(1-Aminomethyl-cyclopropyl)-8-(3-ethynyl-4-methoxy-phenyl)-4,5-dihydro-1H-pyrrolo[2,3-f]isoquinoline-3-carboxylic acid lactam]"
4,62,"Cc1cncc(-c2cc3c(cn2)CCc2c-3[nH]c3c2C(=O)NC2(CCC2)C3)c1 [Example 102, 2-(1-Amino-cyclobutylmethyl)-8-(5-methyl-pyridin-3-yl)-4,5-dihydro-1H-pyrrolo[2,3-f]isoquinoline-3-carboxylic acid lactam]"
5,< 3,"CN1CC2(CNC(=O)c3c2[nH]c2c3CCc3cnc(-c4cccc(Cl)c4)cc3-2)C1 [Example 188, 2-[3-Aminomethyl-1-methyl-azetidin-3-yl]-8-(3-chloro-phenyl)-4,5-dihydro-1H-pyrrolo[2,3-f]isoquinoline-3-carboxylic acid lactam]"
6,8,"CC(=O)N1CCN(c2ccc(-c3cc4c(cn3)CCc3c-4[nH]c4c3C(=O)NCC43CC3)cc2C#N)CC1 [Example 313, 2-(4-Acetyl-piperazin-1-yl)-10-spirocyclopropyl-5-(7-oxo-6,7,8,9,10,11-hexahydro-5H-3,8,11-triaza-benzo[a]fluoren-2-yl)-benzonitrile]"
7,18,"Cn1c2c(c3c1-c1cc(-c4cccc(F)c4)ncc1CC3)C(=O)NC1(CNC1)C2 [Example 133, 2-(3-Amino-azetidin-3-ylmethyl)-8-(3-fluoro-phenyl)-1-methyl-4,5-dihydro-1H-pyrrolo[2,3-f]isoquinoline-3-carboxylic acid lactam hydrochloride]"
8,11,"O=C(NCc1ccccc1)c1cccc(-c2cc3c(cn2)CCc2c-3[nH]c3c2C(=O)NCC32CN(CC3CC3)C2)c1 [Example 261, 2-(3-Aminomethyl-1-cyclopropylmethyl-azetidin-3-yl)-8-(3-benzylcarbamoyl-phenyl)-4,5-dihydro-1H-pyrrolo[2,3-f]isoquinoline-3-carboxylic acid lactam]"
9,36,"O=C1NC2(CC2)C2(CC2)c2[nH]c3c(c21)CCc1cnc(-c2ccc(OCCN4CCOCC4)cc2)cc1-3 [Example 230, 2-(1′-Amino-bicyclopropyl-1-yl)-8-[4-(2-morpholin-4-yl-ethoxy)-phenyl]-4,5-dihydro-1H-pyrrolo[2,3-f]isoquinoline-3-carboxylic acid lactam]"
10,< 3,"CN1CC2(C1)c1[nH]c3c(c1C(=O)NC21CC1)CCc1cnc(-c2ccc(CCCN4CCOCC4)cc2)cc1-3 [Example 260, 2-[3-(1-Amino-cyclopropyl)-1-methyl-azetidin-3-yl]-8-[4-(3-morpholin-4-yl-propyl)-phenyl]-4,5-dihydro-1H-pyrrolo[2,3-f]isoquinoline-3-carboxylic acid lactam]"
11,20,"COc1ccc(-c2ncc3c(n2)-c2c(c4c(n2C)C2(CNC4=O)CN(C)C2)CC3)cc1 [Example 219, 2-(3-Aminomethyl-1-methyl-azetidin-3-yl)-8-(4-methoxy-phenyl)-1-methyl-4,5-dihydro-1H-1,7,9-triaza-cyclopenta[a]naphthalene-3-carboxylic acid lactam]"
12,15,"O=C1NCC2(CCC2)c2[nH]c3c(c21)CCc1cnc(-c2ccc(F)nc2)cc1-3 [Example 300, 2-(6-Fluoro-pyridin-3-yl)-10-spirocyclobutyl-5,6,8,9,10,11-hexahydro-3,8,11-triaza-benzo[a]fluoren-7-one]"
